Measured values published in patent publication US20100094000A1, “PYRAZOLE COMPOUNDS” (TAKEDA PHARMACEUTICAL COMPANY LIMITED, priority 2008, published 2010).

Molecular target: T1, Human Mineralocorticoid Receptor (hMR) (Homo sapiens, UniProt P08235)
T1 construct: To obtain the full-length hMR cDNA, pB-hMR (i) was digested with XhoI and PvuI; expressed in transfected cells; host or cells: FreeStyle 293 cells transiently transfected with pMCMVneo-hMR; supernatant of the freeze-thaw lysate (hMR lysate)
T1 sequence (P08235 1-984): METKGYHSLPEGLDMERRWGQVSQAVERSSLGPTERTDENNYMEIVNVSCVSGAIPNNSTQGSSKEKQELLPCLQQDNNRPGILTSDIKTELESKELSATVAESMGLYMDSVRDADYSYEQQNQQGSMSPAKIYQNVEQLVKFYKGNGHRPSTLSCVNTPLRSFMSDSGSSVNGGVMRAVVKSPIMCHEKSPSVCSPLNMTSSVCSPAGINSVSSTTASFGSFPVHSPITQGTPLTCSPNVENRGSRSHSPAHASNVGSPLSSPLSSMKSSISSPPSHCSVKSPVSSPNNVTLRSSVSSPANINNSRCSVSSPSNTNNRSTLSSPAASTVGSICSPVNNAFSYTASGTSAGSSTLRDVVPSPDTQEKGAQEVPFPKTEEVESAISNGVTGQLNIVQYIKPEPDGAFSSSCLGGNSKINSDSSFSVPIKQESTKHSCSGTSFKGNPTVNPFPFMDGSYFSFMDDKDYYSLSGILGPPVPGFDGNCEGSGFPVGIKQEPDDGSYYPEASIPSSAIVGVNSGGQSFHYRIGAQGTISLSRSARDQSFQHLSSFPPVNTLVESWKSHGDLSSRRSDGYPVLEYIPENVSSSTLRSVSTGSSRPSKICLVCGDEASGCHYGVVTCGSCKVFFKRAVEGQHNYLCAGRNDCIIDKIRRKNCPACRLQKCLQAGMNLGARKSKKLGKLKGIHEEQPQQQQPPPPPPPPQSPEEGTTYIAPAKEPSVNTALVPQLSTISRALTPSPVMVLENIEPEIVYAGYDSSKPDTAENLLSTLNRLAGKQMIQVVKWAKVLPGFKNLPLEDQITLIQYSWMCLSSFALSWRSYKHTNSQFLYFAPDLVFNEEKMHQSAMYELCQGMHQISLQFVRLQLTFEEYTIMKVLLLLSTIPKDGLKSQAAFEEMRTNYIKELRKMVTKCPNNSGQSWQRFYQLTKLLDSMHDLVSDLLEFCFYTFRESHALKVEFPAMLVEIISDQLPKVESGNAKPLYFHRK
Assay: Inhibition of binding of hMR and [3H]-aldosterone (hMR lysate, charcoal separation)
Conditions: test compound at 10^−5 M; 10 nM [3H]-aldosterone; hMR lysate; 16 hr at 4° C.; read-out: Inhibition rate (at 10^−5 M)
Procedure: The following procedures described in this Example were carried out according to the methods described in Molecular Cloning—Cold Spring Harbor Laboratory (1989) or protocols specified by manufacturers.
(1) Cloning of Human Mineralocorticoid Receptor (hMR) cDNA
hMR cDNA was amplified by polymerase chain reaction (PCR) from human kidney cDNA library. Full-length cDNA was constructed from two fragments of hMR cDNA amplified separately. The primers were designed referring to the nucleotide sequence of hMR cDNA reported by Arriza et. al (Science 1987; 237: 268-275).
The PCR reactions were carried out using PyrobestR® DNA polymerase (Takara). The PCR products were electrophoresed in agarose gel, and 1.7 kb (region (i)) and 1.5 kb (region (ii)) DNA fragments were recovered. Each DNA fragment was inserted into pCR®4Blunt-TOPO® vector (Invitrogen). The resulting plasmids thus obtained were designated as pB-hMR (i) and pB-hMR (ii). To obtain the full-length hMR cDNA, pB-hMR (i) was digested with XhoI and PvuI, and pB-hMR (ii) was digested with PvuI and KpnI, respectively, and the two cDNA fragments were ligated into pBlueScript®IISK+ vector (Stratagene). The resulting plasmid thus obtained was designated as pB-hMR.
pMCMVneo (described in WO03/099793) was digested with XhoI and KpnI, and 5.6 kb fragment was ligated with 2.9 kb hMR cDNA fragment obtained by digestion of pB-hMR (described in above (1)) with XhoI and KpnI. The plasmid thus obtained was designated as pMCMVneo-hMR.
FreeStyle 293 cells were inoculated at 3×10^8 cells in 270 ml FreeStyle™ 293 Expression Medium (Invitrogen) in a 1000 ml Erlenmeyer flask. The cells were treated with 30 ml of the transfection mixture containing 300 μg of pMCMVneo-hMR obtained in above (2) and 400 μl of 293fectin™ Reagent (Invitrogen). The transfected cells were cultivated for 48 hr at 37° C. in 8% CO2 atmosphere at 125 rpm. The cultivated cells were centrifuged and washed with TEG buffer (10 mM Tris-HCl (pH 7.2), 50 mM EDTA, 10% glycerol), and resuspended in 10 ml TEGM buffer (10 mM Tris-HCl (pH 7.2), 1 mM EDTA, 10% glycerol, 1 mM β-mercaptoethanol, 10 mM sodium molybdate, 1 mM dithiothreitol, 2 tablets/100 ml of protease inhibitor cocktail tablets (Roche)). The cell suspension was frozen with liquid nitrogen and thawed on ice, and ultra-centrifuged at 186,000×g for 20 min at 4° C. The supernatant fraction including hMR (hMR lysate) was collected and stored at −80° C.
(4) Measurement of Inhibition Activity Against Binding of hMR and Aldosterone
[^3H]-Aldosterone (Amersham Biosciences) as ligand was added at 10 nM to the reaction mixture including test compound at various concentration and hMR lysate (lot.19: 0.675 mg/mL, lot.20: 0.675 mg/mL, lot.21: 0.765 mg/mL, lot.22: 0.900 mg/mi, lot.23: 0.750 mg/mL) obtained in above (3) and mixture was filled up to 50.5 μl with TEGM buffer. The reaction mixture was incubated for 16 hr at 4° C. and 35 μl of dextran/gelatin coated charcoal suspension (5% charcoal, 0.5% dextran T-70 (Amersham Biosciences), 0.1% gelatin (SIGMA), 10 mM Tris HCl (pH 7.2), 1 mM EDTA) was added thereto to separate bound and free radioactive aldosterone. The mixture containing charcoal was incubated for 10 min at 4° C. and centrifuged at 910×g for 10 min at 4° C.
Radioactivity in 30 μl of the supernatant was measured by TopCount™ (Packard).
For the determination of nonspecific binding, cold Aldosterone instead of drug was added to reaction mixture at 100 μM. Specific binding was determined by subtracting nonspecific binding from total binding.

| inhibition at 10 µM | Structure (SMILES) |
| --- | --- |
| ≥ 90% | Cc1nn(C)c(-c2ccc(F)cc2)c1-c1ccc2c(c1)NC(=O)CO2 [Example 1, 6-[5-(4-Fluorophenyl)-1,3-dimethyl-1H-pyrazol-4-yl]-2H-1,4-benzoxazin-3(4H)-one] |
| ≥ 90% | Cc1nn(CCS(C)(=O)=O)c(-c2ccc(F)cc2)c1-c1ccc2c(c1)NC(=O)CO2 [Example 6, 6-{5-(4-Fluorophenyl)-3-methyl-1-[2-(methylsulfonyl)ethyl]-1H-pyrazol-4-yl}-2H-1,4-benzoxazin-3(4H)-one] |
| ≥ 90% | Cc1nn(CCC(F)(F)CO)c(-c2ccc(F)cc2)c1-c1ccc2c(c1)NC(=O)CO2 [Example 25, 6-[1-(3,3-Difluoro-4-hydroxybutyl)-5-(4-fluorophenyl)-3-methyl-1H-pyrazol-4-yl]-2H-1,4-benzoxazin-3(4H)-one] |
| ≥ 90% | CC(=O)OCC(F)(F)Cn1nc(C)c(-c2ccc3c(c2)NC(=O)CO3)c1-c1ccc(F)cc1 [Example 26, 2,2-Difluoro-3-[5-(4-fluorophenyl)-3-methyl-4-(3-oxo-3,4-dihydro-2H-1,4-benzoxazin-6-yl)-1H-pyrazol-1-yl]propyl acetate] |
| ≥ 90% | Cc1nn(CC(C)(F)F)c(-c2ccc(F)cc2)c1-c1ccc2c(c1)NC(=O)CO2 [Example 83, 6-[1-(2,2-Difluoropropyl)-5-(4-fluorophenyl)-3-methyl-1H-pyrazol-4-yl]-2H-1,4-benzoxazin-3(4H)-one] |
| ≥ 90% | CC(=O)Cn1nc(C)c(-c2ccc3c(c2)NC(=O)CO3)c1-c1ccc(F)cc1 [Example 87, 6-[5-(4-Fuorophenyl)-3-methyl-1-(2-oxopropyl)-1H-pyrazol-4-yl]-2H-1,4-benzoxazin-3(4H)-one] |
| ≥ 90% | Cc1nn(CC(F)(F)CO)c(-c2ccc(F)cc2)c1-c1ccc2c(c1)NC(=O)CO2 [Example 109, 6-[1-(2,2-Difluoro-3-hydroxypropyl)-5-(4-fluorophenyl)-3-methyl-1H-pyrazol-4-yl]-2H-1,4-benzoxazin-3(4H)-one] |
| ≥ 90% | Cc1nn(CC(C)(C)CO)c(-c2ccc(F)cc2)c1-c1ccc2c(c1)NC(=O)CO2 [Example 125, 6-[5-(4-Fluorophenyl)-1-(3-hydroxy-2,2-dimethylpropyl)-3-methyl-1H-pyrazol-4-yl]-2H-1,4-benzoxazin-3(4H)-one] |
| ≥ 90% | Cc1nn(CC(F)(F)CO)c(-c2ccc(F)cc2)c1-c1ccc2c(c1C)NC(=O)CO2 [Example 128, 6-[1-(2,2-Difluoro-3-hydroxypropyl)-5-(4-fluorophenyl)-3-methyl-1H-pyrazol-4-yl]-5-methyl-2H-1,4-benzoxazin-3(4H)-one] |
| ≥ 90% | Cc1nn(Cc2cccnc2)c(-c2ccc(F)cc2)c1-c1ccc2c(c1)NC(=O)CO2 [Example 135, 6-[5-(4-Fluorophenyl)-3-methyl-1-(pyridin-3-ylmethyl)-1H-pyrazol-4-yl]-2H-1,4-benzoxazin-3(4H)-one] |
| ≥ 90% | Cc1nn(CC2CCOC2)c(-c2ccc(F)cc2)c1-c1ccc2c(c1)NC(=O)CO2 (stereo not drawn) [Example 146, 6-[5-(4-Fluorophenyl)-3-methyl-1-(tetrahydrofuran-3-ylmethyl)-1H-pyrazol-4-yl]-2H-1,4-benzoxazin-3(4H)-one] |
| ≥ 90% | Cc1nn(C[C@@H]2CCC(=O)O2)c(-c2ccc(F)cc2)c1-c1ccc2c(c1)NC(=O)CO2 [Example 159, 6-[5-(4-Fluorophenyl)-3-methyl-1-{[(2S)-5-oxotetrahydrofuran-2-yl]methyl}-1H-pyrazol-4-yl]-2H-1,4-benzoxazin-3(4H)-one] |

Test system: not given
Assay: not given
Conditions: not given

| melting point | Structure (SMILES) |
| --- | --- |
| 260.2 to 260.5 °C | Cc1nn(C)c(-c2ccc(F)cc2)c1-c1cc(Cl)c2c(c1)NC(=O)CO2 [Example 32, 8-Chloro-6-[5-(4-fluorophenyl)-1,3-dimethyl-1H-pyrazol-4-yl]-2H-1,4-benzoxazin-3(4H)-one] |
| 205 to 206 °C | [2H]C1([2H])Oc2ccc(-c3c(C)nn(CC(C)(F)F)c3-c3ccc(F)cc3)cc2NC1=O [Example 174] |
| 100 °C | CCOC(=O)CCC(=O)OCC(F)(F)Cn1nc(C)c(-c2ccc3c(c2)NC(=O)CO3)c1-c1ccc(F)cc1 [Example 185, 2,2-Difluoro-3-[5-(4-fluorophenyl)-3-methyl-4-(3-oxo-3,4-dihydro-2H-1,4-benzoxazin-6-yl)-1H-pyrazol-1-yl]propyl ethyl butanedioate] |
| 106 °C | CCCCCCCCCCCCCCCC(=O)OCC(F)(F)Cn1nc(C)c(-c2ccc3c(c2)NC(=O)CO3)c1-c1ccc(F)cc1 [Example 186, 2,2-Difluoro-3-[5-(4-fluorophenyl)-3-methyl-4-(3-oxo-3,4-dihydro-2H-1,4-benzoxazin-6-yl)-1H-pyrazol-1-yl]propyl hexadecanoate] |
| 142 °C | CCOC(=O)OCC(F)(F)Cn1nc(C)c(-c2ccc3c(c2)NC(=O)CO3)c1-c1ccc(F)cc1 [Example 187, 2,2-Difluoro-3-[5-(4-fluorophenyl)-3-methyl-4-(3-oxo-3,4-dihydro-2H-1,4-benzoxazin-6-yl)-1H-pyrazol-1-yl]propyl ethyl carbonate] |
| 112 °C | CNC(=O)OCC(F)(F)Cn1nc(C)c(-c2ccc3c(c2)NC(=O)CO3)c1-c1ccc(F)cc1 [Example 198, 2,2-Difluoro-3-[5-(4-fluorophenyl)-3-methyl-4-(3-oxo-3,4-dihydro-2H-1,4-benzoxazin-6-yl)-1H-pyrazol-1-yl]propyl methylcarbamate] |
